These results are taken from the METLIN SMRT retention time set (Domingo-Almenara et al. 2019).

The data set can be described thus: gradient 5% acetonitrile 3 min, to 50% in 2 min, to 85% in 15 min, held 3 min, 100 µL/min. Conditions: column: Zorbax Extend-C18 2.1 x 50 mm; eluents: water / acetonitrile, 0.1% formic acid. The method, boiled down: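 Retention times come from adduct peaks that were picked computationally and then checked by hand. The standards, pure and pooled in mixtures of ~100 molecules, were run on a Zorbax Extend-C18 column (2.1 × 50 mm, 1.8 μm) at 100 μL/min with water and acetonitrile, each with 0.1% formic acid. Detection was by quadrupole time-of-flight mass spectrometry in positive and negative ionization mode, with a dead volume of 40 μL and a dwell volume of 900 μL.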
The compound `COCCNC(=O)C1COc2ccc(NC(=O)c3ccc(Br)cc3)cc2C1` (stereo not given) came in with an RP-LC retention time of 774 s.

Compound `COc1ccc(S(=O)(=O)N2CCCC(C(=O)Nc3ccc4c(c3)OCO4)C2)cc1C` (stereo not given) had an RP-LC retention time of 957 s. On to `O=S(=O)(Nc1ccc(F)cc1)c1cccc(-c2nc(-c3ccccc3)no2)c1`, for which the RP-LC retention time worked out at 1120 s. Turning to `O=C(c1cc(C2CC2)[nH]n1)N1CCN(c2ccc(Cl)cc2)CC1`, the RP-LC retention time stood at 837 s. In turn, `O=c1ccc(-c2nc(-c3ccc(F)cc3)no2)nn1Cc1cccc(F)c1` came in with an RP-LC retention time of 1090 s. Take `CCN(C(=O)Cn1nc(S(=O)(=O)c2ccc(Cl)cc2)ccc1=O)c1ccccc1`: the RP-LC retention time is 920 s.

Consider `O=C(Nc1ccccc1)N1CCC(Oc2ccccc2)C1` (stereo not given), for which the RP-LC retention time was 872 s.

The compound `COCCNC(=O)c1csc(N2CCN(c3ccc(F)cc3)CC2)n1` showed an RP-LC retention time of 869 s.

`Cc1ccc(NC(=O)C2CCN(S(=O)(=O)c3ccc4[nH]c(=O)sc4c3)CC2)cc1Cl` displayed an RP-LC retention time of 904 s. As to `Cc1csc(-c2csc(S(=O)(=O)N3CCN(c4cccc(C)c4C)CC3)c2)n1`, the RP-LC retention time came out at 1310 s. `Cc1c(N2C(=O)C3C4C=CC(C4)C3C2=O)c(=O)n(-c2ccccc2)n1C` (stereo not given) returned an RP-LC retention time of 615 s. `CCCCNC(=O)C1Cc2cc(S(=O)(=O)N3CCCCC3)ccc2N1C(C)=O` (stereo not given) displayed an RP-LC retention time of 806 s. In the case of `CCc1ccc(-c2ccc(-n3nc(C)c(S(=O)(=O)N4CCC(C)CC4)c3C)nn2)cc1`, the RP-LC retention time worked out at 1350 s. In turn, `Cc1nc2cc(-c3noc(Cc4cccc5ccccc45)n3)ccc2o1` had an RP-LC retention time of 1130 s.

On to `O=C(NC1CCCCC1)N1CCCC1c1nc(-c2cccc(F)c2)no1` (stereo not given), for which the RP-LC retention time was determined as 984 s.

For the compound `Cc1ccc(Cl)cc1NC(=O)N1CCC(c2cc(N)on2)CC1`, the RP-LC retention time was 736 s. On to `CCCN(C(=O)Nc1ccccc1C(=O)OCC)c1nc(-c2ccc(C3CCCCC3)cc2)cs1`, for which the RP-LC retention time worked out at 630 s. `Cc1ccc(-c2nc3ccccn3c2NC(=O)Nc2cc(F)ccc2F)cc1` gave an RP-LC retention time of 707 s. As for `CC1CCCN(c2nn(CC(=O)Nc3cc(F)cc(F)c3)c(=O)c3ccccc23)C1` (stereo not given), the figure is 1180 s; as for `COc1ccc(-c2nnc(N3CCC(C(=O)NCCN(C)C)CC3)o2)cc1`, 594 s; as for `CCCN(C)c1nccnc1OC1CCN(Cc2cccnc2)C1` (stereo not given), 594 s. The compound `CCN1C(=O)c2ccccc2Oc2ccc(C(=O)NC3CC3)cc21` showed an RP-LC retention time of 751 s.

`O=C(Cn1ccc2c(SCc3ccc(F)cc3)nccc21)NCc1ccc(N2CCOCC2)cc1` yielded an RP-LC retention time of 706 s. Compound `COc1cc2c(cc1CNC(=O)COc1ccc(Br)cc1)OCCCO2` returned an RP-LC retention time of 957 s. As for `C=CCn1c(C)c(CC(=O)NCC(C)C)c(=O)n2nc(-c3ccc(C)cc3)nc12`, the figure is 840 s; as for `O=C(Nc1cnc2c(c1)CCC2)C1CCCC1`, 522 s. `CCS(=O)(=O)N1CCc2ccc(NC(=O)c3ccco3)cc2C1` displayed an RP-LC retention time of 682 s. Regarding `COc1cc(OC)c(NS(=O)(=O)c2cc(-c3c(C)noc3NC(C)=O)ccc2OC)cc1Cl`, the RP-LC retention time stood at 792 s.

The compound `CCOC(=O)c1ccc(NC(=O)c2cc(C)nn2-c2ccccc2)cc1` registered an RP-LC retention time of 937 s. `CCOc1ccc(S(=O)(=O)NC2CCN(c3ccc(=O)[nH]n3)C2)cc1` (stereo not given): the RP-LC retention time stood at 671 s. In the case of `NC(=O)Cc1csc(NC(=O)c2csc(Nc3ccc(OC(F)F)cc3)n2)n1`, the RP-LC retention time amounted to 688 s. As for `O=C(CSc1nnnn1-c1ccccc1)NCCc1ccc2c(c1)OCCO2`, the figure is 745 s. As for `CC1CCC(NC(=O)C2CCN(S(=O)(=O)c3ccc4c(c3)NC(=O)C(C)O4)CC2)CC1` (stereo not given), the figure is 876 s; as for `CCOc1ccc(-c2nc(C3CC(=O)N(c4ccc(Cl)cc4)C3)no2)cc1` (stereo not given), 1130 s; as for `CCn1cc(CN2CCC(C(=O)NC3CCCCCC3)CC2)c2cc(Cl)ccc21`, 777 s. In the case of `COc1ccc(NC(=O)c2ccc(-c3ccsc3)nc2)cc1`, the RP-LC retention time was determined as 862 s. The compound `Cc1nc(-c2cc(S(=O)(=O)N3CCC(C(=O)N4CCOCC4)CC3)c(C)s2)no1` gave an RP-LC retention time of 742 s. `Cc1cc(-c2nnc(C3CC3)o2)c(C)n1CC(=O)Nc1ccc(N2CCOCC2)cc1` had an RP-LC retention time of 700 s. `c1ccc(-c2nc3nccc(-c4ccccc4)n3n2)cc1` gave an RP-LC retention time of 907 s. In turn, `COc1ccc(CNC(=O)c2cn(-c3cc(N(C)C)ncn3)cn2)cc1` registered an RP-LC retention time of 743 s. As for `CN(CCc1noc(COc2ccc(Cl)cc2)n1)C(=O)NC(C)(C)C`, the figure is 953 s; as for `CCN1CCCn2cc(S(=O)(=O)Nc3ccccc3F)cc2C1=O`, 687 s. The compound `c1ccc(-c2nnc3nc(N4CCCCC4)nc(N4CCCCC4)n23)cc1` registered an RP-LC retention time of 1260 s. As for `CCCNS(=O)(=O)c1cc(-c2nc(C(C)C)cs2)sc1C`, the figure is 1160 s. `CCCn1cc(C(=O)NCCCOC)c(S(=O)(=O)N2CCN(c3ccccc3Cl)CC2)n1` came in with an RP-LC retention time of 1020 s. In turn, `O=C(Nc1ccc(F)cc1)C1CCN(C(=O)C2Sc3ccccc3NC2=O)CC1` (stereo not given) showed an RP-LC retention time of 746 s. Compound `CC1CCN(S(=O)(=O)c2cc(-c3nnc(C(C)C)o3)co2)CC1` returned an RP-LC retention time of 964 s. In turn, `COc1ccc2[nH]c3c(C)c4ccncc4c(C)c3c2c1` gave an RP-LC retention time of 658 s. `CSc1cccc(NC(=O)N2CCN(C)CC2)c1`: the RP-LC retention time was found to be 647 s. Compound `CC1CCCCN1S(=O)(=O)c1cc(-c2nnc(C3CCCC3)o2)co1` (stereo not given) showed an RP-LC retention time of 1060 s. Take `O=C(c1ccc2c(c1)OCO2)N1C[C@H]2C[C@H](C1)[C@H]1CCCC(=O)N1C2`: the RP-LC retention time is 637 s. `Cc1cc(OCC(=O)N2CCC3(O)CCCCC3C2)c2c(C)c(C)c(=O)oc2c1` (stereo not given) returned an RP-LC retention time of 798 s.

For the compound `Cc1nn(-c2ccc(-c3ccccc3)nn2)c(C)c1S(=O)(=O)NCc1ccccc1`, the RP-LC retention time was 1030 s. Consider `COC(=O)c1cc2c(=O)n(-c3nc(-c4ccc(Cl)cc4)cs3)ccc2nc1C`, for which the RP-LC retention time came to 1420 s. In turn, `CCN(Cc1ccc(F)cc1)Cc1cc(=O)c2cccc(F)c2[nH]1` came in with an RP-LC retention time of 594 s. As to `Clc1ccc(-c2csc(Cc3nc(-c4ccccc4)no3)n2)cc1`, the RP-LC retention time was found to be 1310 s. `CC(C)(C)C1CCc2[nH]nc(C(N)=O)c2C1` (stereo not given) displayed an RP-LC retention time of 745 s. Compound `COc1ccc(-c2nc3cnccn3c2Nc2ccc(C(=O)NC(C)C)cc2)cc1OC` yielded an RP-LC retention time of 661 s. Take `Cc1ccc2c(Nc3ccc(F)c(C#N)c3)c(C(=O)N3CCOCC3)cnc2n1`: the RP-LC retention time turned out to be 598 s. As for `Cn1cc(S(=O)(=O)N2CCC(C(=O)N3CCCC3)CC2)cc1C(=O)N1CCCCC1`, the figure is 681 s; as for `O=C1Nc2cc(C(=O)N3CCC(Cc4ccccc4)CC3)ccc2N2CCCCC12` (stereo not given), 1020 s; as for `Cc1ccc(CNC(=O)C2CCCN(S(=O)(=O)c3c[nH]c(C(=O)N4CCCC4)c3)C2)o1` (stereo not given), 729 s.

Compound `CCc1cc(=O)n(CC(=O)Nc2ccc(C(C)C)cc2)c(N2CCOCC2)n1` returned an RP-LC retention time of 895 s. For `CCCNC(=O)C1CCN(c2ccc(SCC(=O)Nc3ccc(OC)cc3)nn2)CC1`, the RP-LC retention time turned out to be 611 s. `COc1ccc(-c2nnc(-c3cccnc3N3CCN(c4ccccc4C)CC3)o2)cc1`: the RP-LC retention time was determined as 1280 s.

For the compound `O=C(Cn1c(=O)c2cccn2c2ccc(F)cc21)N1CCc2ccccc2C1`, the RP-LC retention time amounted to 911 s. The compound `CC(=O)N1c2ccc(S(=O)(=O)NCc3ccc4c(c3)CCN4C(=O)CC(C)C)cc2CC1C` (stereo not given) displayed an RP-LC retention time of 874 s. `CSc1ccc(CNC(=O)C2c3ccccc3CCN2C(C)=O)cc1` (stereo not given) had an RP-LC retention time of 790 s. As to `CCOc1ccccc1-c1noc(-c2nnn3c2COC(c2ccc(C)cc2C)C3)n1` (stereo not given), the RP-LC retention time was determined as 1290 s. In turn, `CCCN1C(=O)COc2ccc(-c3csc(NC(=O)c4ccccc4Cl)n3)cc21` displayed an RP-LC retention time of 1030 s. Compound `COc1ccc(NC(=O)C(=O)c2cccn2C)cc1OC` displayed an RP-LC retention time of 784 s. `COC(=O)c1nn(-c2ccc(C)cc2)c2c(=O)n(C)cnc12` came in with an RP-LC retention time of 707 s.

As for `CCNC(=O)N1CCc2c([nH]c3ccc(OC)cc23)C12C(=O)N(C)c1ccccc12` (stereo not given), the RP-LC retention time stood at 984 s.

Compound `CNC(=O)N1CCc2ccc(C(=O)NC(C)C)cc21` showed an RP-LC retention time of 625 s. For `CCCNC(=O)C1CCCN(C(=O)c2[nH]c(C)c(C)c2C)C1` (stereo not given), the RP-LC retention time was 721 s. As for `Cc1ccc(NS(=O)(=O)c2cc3c(s2)CCN(C(=O)C2CCC2)C3)c(C)c1`, the figure is 943 s.

On to `Nc1ncnc(N2CCc3ccccc32)c1[N+](=O)[O-]`, for which the RP-LC retention time was found to be 697 s.

`O=C(Nc1cc(-c2ccccn2)no1)c1ccc2ccccc2n1` yielded an RP-LC retention time of 965 s. Compound `CC(=O)c1cccc(NC(=O)c2noc3c2CCCC3)c1` had an RP-LC retention time of 874 s. In the case of `Cc1nnc(-c2ccc(OCC(=O)N(C(C)C)C(C)C)cc2)o1`, the RP-LC retention time amounted to 708 s.
